In the supplement of paper PMC10307832:

Experiments:
Experiment in all cases: relative viability (nuclei count vs DMSO), 5 days (fraction); higher = more cells survive
VE-821 + Alpelisib = compound: CS(=O)(=O)c1ccc(-c2cnc(N)c(C(=O)Nc3ccccc3)n2)cc1 [VE-821] + Cc1nc(NC(=O)N2CCC[C@H]2C(N)=O)sc1-c1ccnc(C(C)(C)C(F)(F)F)c1 [Alpelisib] (partner 2 µM)
Summary of the method: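 The day after seeding in 1536-well plates, lung cancer cell lines were treated by pin tool with a single drug, or with a fixed anchor-drug dose together with five library-drug doses (not always all listed) in √10 steps. After 5 days, a combined fix-and-stain solution (final 0.05% Triton X-100, 1% formaldehyde, 1 ug/ml Hoechst) was added. Nuclei counted on 4× images gave relative viability as treated counts over vehicle counts, reported as the median of duplicate plates.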

Ruxolitinib = compound: N#CC[C@H](C1CCCC1)n1cc(-c2ncnc3[nH]ccc23)cn1 [Ruxolitinib]
Summary of the method: (§1)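 Viability is treated-well nuclei as a fraction of vehicle-well nuclei, reported as the median across plates. Before counting, lung cancer cell lines were kept overnight at 37 °C in 1536-well plates, pinned with five √10-spaced library-drug doses on vehicle-anchored plates, and left 5 days without medium change, then fixed, permeabilised and Hoechst-stained in one step, imaged at 4× and counted by MetaXpress. A plate passed only if control CV was below 25% and at least one doubling occurred.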

VE-821 = compound: CS(=O)(=O)c1ccc(-c2cnc(N)c(C(=O)Nc3ccccc3)n2)cc1 [VE-821]
Summary of the method: as §1

Vismodegib = compound: CS(=O)(=O)c1ccc(C(=O)Nc2ccc(Cl)c(-c3ccccn3)c2)c(Cl)c1 [Vismodegib]
Summary of the method: as §1

NCI-H2405
relative viability (VE-821 + Alpelisib; first compound 0.08 µM): 0.908 | relative viability (VE-821 + Alpelisib; first compound 0.253 µM): 0.808 | relative viability (VE-821 + Alpelisib; first compound 0.8 µM): 0.67 | relative viability (VE-821 + Alpelisib; first compound 2.53 µM): 0.984 | relative viability (VE-821 + Alpelisib; first compound 8 µM): 0.573 | relative viability (Ruxolitinib; 0.08 µM): 0.715 | relative viability (Ruxolitinib; 0.253 µM): 0.974 | relative viability (Ruxolitinib; 0.8 µM): 0.999 | relative viability (Ruxolitinib; 2.53 µM): 0.938 | relative viability (Ruxolitinib; 8 µM): 0.52 | relative viability (VE-821; 0.08 µM): 1.06 | relative viability (VE-821; 0.253 µM): 0.968 | relative viability (VE-821; 0.8 µM): 0.968 | relative viability (VE-821; 2.53 µM): 1.09 | relative viability (VE-821; 8 µM): 0.993 | relative viability (Vismodegib; 0.08 µM): 0.96 | relative viability (Vismodegib; 0.253 µM): 1.06 | relative viability (Vismodegib; 0.8 µM): 0.927 | relative viability (Vismodegib; 2.53 µM): 0.991 | relative viability (Vismodegib; 8 µM): 1.03

LK-2
relative viability (VE-821 + Alpelisib; first compound 0.08 µM): 1.14 | relative viability (VE-821 + Alpelisib; first compound 0.253 µM): 1.17 | relative viability (VE-821 + Alpelisib; first compound 0.8 µM): 0.925 | relative viability (VE-821 + Alpelisib; first compound 2.53 µM): 1.29 | relative viability (VE-821 + Alpelisib; first compound 8 µM): 0.672 | relative viability (Ruxolitinib; 0.08 µM): 0.928 | relative viability (Ruxolitinib; 0.253 µM): 0.949 | relative viability (Ruxolitinib; 0.8 µM): 1.13 | relative viability (Ruxolitinib; 2.53 µM): 1.02 | relative viability (Ruxolitinib; 8 µM): 1.09 | relative viability (VE-821; 0.08 µM): 1.26 | relative viability (VE-821; 0.253 µM): 0.911 | relative viability (VE-821; 0.8 µM): 0.993 | relative viability (VE-821; 2.53 µM): 1.02 | relative viability (VE-821; 8 µM): 0.881 | relative viability (Vismodegib; 0.08 µM): 1 | relative viability (Vismodegib; 0.253 µM): 0.842 | relative viability (Vismodegib; 0.8 µM): 0.861 | relative viability (Vismodegib; 2.53 µM): 1.02 | relative viability (Vismodegib; 8 µM): 0.899

NCI-H1623
relative viability (Ruxolitinib; 0.08 µM): 0.942 | relative viability (Ruxolitinib; 0.253 µM): 0.936 | relative viability (Ruxolitinib; 0.8 µM): 1.14 | relative viability (Ruxolitinib; 2.53 µM): 1.14 | relative viability (Ruxolitinib; 8 µM): 1.28 | relative viability (VE-821; 0.08 µM): 1.06 | relative viability (VE-821; 0.253 µM): 0.987 | relative viability (VE-821; 0.8 µM): 0.84 | relative viability (VE-821; 2.53 µM): 1.01 | relative viability (VE-821; 8 µM): 0.809 | relative viability (Vismodegib; 0.08 µM): 0.943 | relative viability (Vismodegib; 0.253 µM): 1.01 | relative viability (Vismodegib; 0.8 µM): 1.06 | relative viability (Vismodegib; 2.53 µM): 0.978 | relative viability (Vismodegib; 8 µM): 1.01

SW 900
relative viability (Ruxolitinib; 0.08 µM): 0.991 | relative viability (Ruxolitinib; 0.253 µM): 1.02 | relative viability (Ruxolitinib; 0.8 µM): 1.03 | relative viability (Ruxolitinib; 2.53 µM): 1.02 | relative viability (Ruxolitinib; 8 µM): 0.896 | relative viability (VE-821; 0.08 µM): 1.01 | relative viability (VE-821; 0.253 µM): 0.793 | relative viability (VE-821; 0.8 µM): 0.763 | relative viability (VE-821; 2.53 µM): 0.748 | relative viability (VE-821; 8 µM): 0.537 | relative viability (Vismodegib; 0.08 µM): 0.982 | relative viability (Vismodegib; 0.253 µM): 0.879 | relative viability (Vismodegib; 0.8 µM): 0.737 | relative viability (Vismodegib; 2.53 µM): 0.655 | relative viability (Vismodegib; 8 µM): 0.93

ChaGo-K-1
relative viability (Ruxolitinib; 0.08 µM): 1.04 | relative viability (Ruxolitinib; 0.253 µM): 0.928 | relative viability (Ruxolitinib; 0.8 µM): 0.947 | relative viability (Ruxolitinib; 2.53 µM): 0.872 | relative viability (Ruxolitinib; 8 µM): 0.735 | relative viability (VE-821; 0.08 µM): 1.03 | relative viability (VE-821; 0.253 µM): 0.882 | relative viability (VE-821; 0.8 µM): 1 | relative viability (VE-821; 2.53 µM): 0.967 | relative viability (VE-821; 8 µM): 0.738 | relative viability (Vismodegib; 0.08 µM): 0.932 | relative viability (Vismodegib; 0.253 µM): 1 | relative viability (Vismodegib; 0.8 µM): 1.03 | relative viability (Vismodegib; 2.53 µM): 0.959 | relative viability (Vismodegib; 8 µM): 0.97

NCI-H2342
relative viability (Ruxolitinib; 0.08 µM): 0.981 | relative viability (Ruxolitinib; 0.253 µM): 0.827 | relative viability (Ruxolitinib; 0.8 µM): 1.09 | relative viability (Ruxolitinib; 2.53 µM): 1.02 | relative viability (Ruxolitinib; 8 µM): 0.964 | relative viability (VE-821; 0.08 µM): 1 | relative viability (VE-821; 0.253 µM): 0.957 | relative viability (VE-821; 0.8 µM): 0.939 | relative viability (VE-821; 2.53 µM): 0.998 | relative viability (VE-821; 8 µM): 0.807 | relative viability (Vismodegib; 0.08 µM): 0.882 | relative viability (Vismodegib; 0.253 µM): 1.07 | relative viability (Vismodegib; 0.8 µM): 0.984 | relative viability (Vismodegib; 2.53 µM): 0.742 | relative viability (Vismodegib; 8 µM): 0.931

NCI-H1650
relative viability (Ruxolitinib; 0.253 µM): 0.958 | relative viability (Ruxolitinib; 0.8 µM): 1.29 | relative viability (Ruxolitinib; 2.53 µM): 0.812 | relative viability (Ruxolitinib; 8 µM): 0.787 | relative viability (VE-821; 0.08 µM): 0.934 | relative viability (VE-821; 0.253 µM): 0.841 | relative viability (VE-821; 0.8 µM): 0.911 | relative viability (VE-821; 2.53 µM): 0.802 | relative viability (VE-821; 8 µM): 0.465 | relative viability (Vismodegib; 0.08 µM): 0.934 | relative viability (Vismodegib; 0.253 µM): 0.813 | relative viability (Vismodegib; 0.8 µM): 0.877 | relative viability (Vismodegib; 2.53 µM): 0.864 | relative viability (Vismodegib; 8 µM): 0.941

NCI-H1648
relative viability (Ruxolitinib; 0.08 µM): 0.644 | relative viability (Ruxolitinib; 0.253 µM): 1.02 | relative viability (Ruxolitinib; 0.8 µM): 1.11 | relative viability (Ruxolitinib; 2.53 µM): 1.25 | relative viability (Ruxolitinib; 8 µM): 1.49 | relative viability (VE-821; 0.08 µM): 1.21 | relative viability (VE-821; 0.253 µM): 0.787 | relative viability (VE-821; 0.8 µM): 0.876 | relative viability (VE-821; 2.53 µM): 0.946 | relative viability (VE-821; 8 µM): 0.674 | relative viability (Vismodegib; 0.08 µM): 1 | relative viability (Vismodegib; 0.253 µM): 0.893 | relative viability (Vismodegib; 0.8 µM): 0.766 | relative viability (Vismodegib; 2.53 µM): 0.987 | relative viability (Vismodegib; 8 µM): 0.74

NCI-H522
relative viability (Ruxolitinib; 0.08 µM): 1.01 | relative viability (Ruxolitinib; 0.253 µM): 0.95 | relative viability (Ruxolitinib; 0.8 µM): 1.01 | relative viability (Ruxolitinib; 2.53 µM): 0.895 | relative viability (Ruxolitinib; 8 µM): 0.874 | relative viability (VE-821; 0.08 µM): 0.974 | relative viability (VE-821; 0.253 µM): 0.938 | relative viability (VE-821; 0.8 µM): 0.934 | relative viability (VE-821; 2.53 µM): 1.06 | relative viability (VE-821; 8 µM): 0.849 | relative viability (Vismodegib; 0.08 µM): 0.973 | relative viability (Vismodegib; 0.253 µM): 0.876 | relative viability (Vismodegib; 0.8 µM): 0.957 | relative viability (Vismodegib; 2.53 µM): 1 | relative viability (Vismodegib; 8 µM): 1.01
